Patent US20230143751A1, “Aromatic Compound And Use Thereof In Preparing Antineoplastic Drugs” (Shanghai Zheye Biotechnology Co. Ltd., priority 2020, published 2023)

Key:
NCI-H358 cells = test: Cell proliferation activity of NCI-H358 by CellTiter-Glo reagent; format: cell-based; details: for IC50: Homo sapiens, NCI-H358, test 8, method of test 3, read-out: IC50 of proliferation inhibitory activity of the compound on NCI-H358 cell line
Description: NCI-H358 cells in exponential growth phase were digested with trypsin-EDTA, plated in a 96-well plate with 2000-3000 cells per well, and incubated overnight at 37° C. with 5% CO2. […] After the incubation, CellTiter-Glo test reagent with an equal volume was added into each well and the obtained 96-well plate was incubated after shaking. The chemiluminescence values were determined by microplate reader, and the IC50 values of the test compounds inhibiting the proliferation of NCI-H358 cells were fitted and calculated by GraphPad Prism software.
The test method of inhibitory activity was the same as that in Test 3 in “Biological Tests” part.

[1] = tested on: Chinese hamster lung fibroblasts (CHL cells); details: from N Engl J Med 2020;383:1207-1217 supporting information; cited from earlier work
[2] = molecular target: T1, human-derived MDR1 (MDR1 coding P-gp) transporter protein (Homo sapiens, UniProt P08183); details: from N Engl J Med 2020;383:1207-1217 supporting information; cited from earlier work
T1 construct: expressed in transfected cells; host or cells: membrane vesicles expressing human MDR1

[3] = tested on: NCI-H358-derived xenograft tumor; test: Pharmacodynamics study of NCI-H358-derived xenograft tumor model, combination with Afatinib or Trametinib (test 10); format: in vivo, nude mice; details: i.g. QD×21 days, 3-2 10 mg/kg, Afatinib 10 mg/kg, Trametinib 0.1 mg/kg
Description: Animal species and number: Balb/c Nude; 6 animals per group. Test samples: […] Test groups: blank solvent control group; […] NCI-H358 tumor cells in logarithmic growth phase were cultured in vitro and collected, and inoculated subcutaneously into the right back of nude mice at a quantity of 5×10^6 cells/each. When the tumor volume reached 150-300 mm^3, the tumor-bearing nude mice were randomly grouped. Subsequently, the animals in each group were administered, and the day of the first administration was defined as day 1 of the test. Administration frequency: once a day. General state observation: observation time and frequency: once a day; observation indexes or contents: including but not limited to administration location, appearance and signs, general behavioral activities, mental status, death and other abnormal performance of the animals. The animals were euthanized at the end of the test. Tumor volume calculation: V=½×long diameter×short diameter^2 (mm^3).

[4] = Safety test for repeated administration for 14 days in SD rats; format: in vivo; details: oral gavage once a day for 14 days, 50, 150, 400 mg/kg
Description: (§1) Test samples: Compound 3-2, and Compound 3-6.
(§2) Animal species and number: SD rat; 6 animals per group (half male and half female).
(§3) Administration mode: oral administration by gavage.
Animal grouping and administration dose: vehicle blank group, Compound 3-2 group (50 mg/kg, 150 mg/kg, 400 mg/kg), Compound 3-6 group (50 mg/kg, 150 mg/kg, 400 mg/kg).
Administration frequency: once a day for 14 days.
(§4) General clinical observations were performed 2 times a day (once in the morning and once in the afternoon) during the test period. Death, morbidity, respiration, secretions, feces, and diet, drinking situation and so on were observed, and the changes in body weight of the rats during the administration period were recorded. The contents of detailed clinical observation included but were not limited to behavioral activity, skin, coat, eyes, ears, nose, abdomen, external genitalia, anus, extremities, feet, and respiration. The animals in each group were euthanized at the end of administration period, and all animals were dissected and subjected to gross observation.

[5] = Acute toxicity test, single oral dose in SD rats; format: in vivo; details: rat, in vivo
Description: as §1, §2, §3
Animal grouping and administration dose: vehicle blank group, Compound 3-2 group (500 mg/kg, 1000 mg/kg, 2000 mg/kg), Compound 3-6 group (500 mg/kg, 1000 mg/kg, 2000 mg/kg).
Administration frequency: once.
as §4, with “Death,” for “General clinical observations were performed 2 times a day (once in the morning and once in the afternoon) during the test period. Death,”, “of observation” for “of administration”

[6] = Preliminary safety test, 5-day escalating oral dosing in Balb/c mice; format: in vivo; details: for MTD at 5 days: both sexes, mouse, in vivo, oral gavage, initially suggested, read-out: maximum tolerated dose; for water and food intake, activity and body weight during the administration period (in words): oral gavage once a day for 5 days, 200 to 800 mg/kg
Description: Test samples: Compound 3-2, Compound 3-6, Compound 3-12M, Compound 3-20, and Compound 4-8.
Animal species and number: Balb/c; 6 animals per group (half male and half female).
as §3
Animal grouping and administration dose: vehicle blank group, Compound 3-2 group (200 mg/kg, 400 mg/kg, 800 mg/kg), Compound 3-6 group (200 mg/kg, 400 mg/kg, 800 mg/kg), Compound 3-12M group (200 mg/kg, 400 mg/kg, 800 mg/kg), Compound 3-20 group (200 mg/kg, 400 mg/kg, 800 mg/kg), Compound 4-8 group (200 mg/kg, 400 mg/kg, 800 mg/kg).
Administration frequency: once a day for 5 days.
General clinical observations were performed 2 times a day (once in the morning and once in the afternoon) during the test period. Death, morbidity, respiration, secretions, feces, and diet, drinking situation and so on were observed, and the changes in body weight of the mice during the administration period were recorded. The animals in each group were euthanized after the administration, and all animals were dissected and subjected to gross observation.

[7] = tested on: MIA PaCa-2-derived xenograft tumor; test: Pharmacodynamics test of MIA PaCa-2-derived xenograft tumor model in nude mice (test 6); format: in vivo; details: for inhibition effect on the growth of subcutaneously transplanted tumors derived from pancreatic cancer MIA paca-2 cells in nude mice (in words): 10 mg/kg QD×15 days; for Tumor inhibition rate (%): MIA PaCa-2 xenograft, nude mice, 10 mg/kg oral gavage QD×15 days
Description: Animal species and number: Balb/c Nude; 6 animals per group.
Test samples: Compound 3-2, Compound 3-6, Compound 3-20, Compound 3-12M.
Test groups: blank solvent control group; Compound 3-2 (10 mg/kg, QD×15 days), Compound 3-6 (10 mg/kg, QD×15 days), Compound 3-20 (10 mg/kg, QD×15 days), Compound 3-12M (10 mg/kg, QD×15 days).
Animal model establishment: MIA paca-2 tumor cells in logarithmic growth phase were cultured in vitro and collected, and inoculated subcutaneously into the right back of nude mice at a quantity of 5×10^6 cells/each. When the tumor volume reached 150-300 mm^3, the tumor-bearing nude mice were randomly grouped. Subsequently, the animals in each group were administered, and the day of the first administration was defined as day 1 of the test.
Administration route and frequency: oral administration by gavage; once a day.
General state observation: observation time and frequency: once a day; observation indexes or contents: including but not limited to administration location, appearance and signs, general behavioral activities, mental status, death and other abnormal performance of the animals. The animals were euthanized at the end of the test.
Tumor volume calculation: V=½×long diameter×short diameter^2 (mm^3). Tumor growth inhibition rate TGI (%) is used to evaluate the tumor inhibition efficacy of the compounds. TGI (%)=[1−(mean tumor volume in treatment group at the end of administration−mean tumor volume in treatment group at the beginning of administration)/(mean tumor volume in control group at the end of administration−mean tumor volume in control group at the beginning of administration)]×100%.

NCI-H358 = test: Cell proliferation inhibitory activity on NCI-H358, 3D model test (agarose colony formation); format: cell-based; details: for anti-cell proliferation activity against KRAS G12C mutant type cells NCI-H358 (in words): 3D model test; for IC50: Homo sapiens, NCI-H358, 3D agarose colony formation, NBT staining
Description: 100 μl of agarose gel with a high concentration was spread in a 96-well plate as the bottom agarose gel layer. Agarose with a low concentration and growth medium containing cells were mixed and then spread on the bottom agar layer, cooled and solidified, then incubated overnight at 37° C. Mother solutions were prepared from the test compounds by using DMSO, and then subjected to gradient elution with RPMI 1640 growth medium. The solutions of test compounds with different concentrations after gradient elution were added to the 96-well plate comprising an upper layer of agar gel-cells. Solvent control well was set up and the plate was incubated in a CO2 incubator. The drug-containing medium was changed during the incubation period and the cell growth situation was observed. After the incubation, the cells were stained with NBT and the number of cell colony formation was counted, and the IC50 values of the compounds inhibiting cell proliferation were derived.

MIA PaCa-2 cells = test: Cell proliferation activity of MIA PaCa-2 by CellTiter-Glo reagent; format: cell-based; details: 72 h, CellTiter-Glo; for IC50: Homo sapiens, MIA PaCa-2, read-out: IC50 value of cell proliferation inhibitory activity of the compound on MIA PaCa-2
Description: MIA PaCa-2 cells in exponential growth phase were digested with trypsin-EDTA, plated in a 96-well plate with 2000-3000 cells per well, and incubated overnight at 37° C. with 5% CO2. Mother solutions were prepared from the test compounds by using DMSO, subjected to gradient elution with DMEM growth medium, and then added into the 96-well plate and incubated in an incubator for 72 h at 37° C. with 5% CO2. After the incubation, CellTiter-Glo test reagent with an equal volume was added into each well and the obtained 96-well plate was incubated after shaking. The chemiluminescence values were determined by microplate reader, and the IC50 values of the test compounds inhibiting the proliferation of MIA PaCa-2 cells were fitted and calculated by GraphPad Prism software.
The test method of inhibitory activity was the same as that in Test 2 in “Biological Tests” part.

KRAS G12C = KRAS G12C (Homo sapiens, UniProt P01116, G12C); test: Effect on KRAS(G12C) enzyme activity (KRAS G12C/c-Raf binding, Eu/d2 energy transfer); format: biochemical
Description: Compound stock solution was taken, and the test compound was subjected to gradient elution in DMSO. The above diluted compound was added into a quantitative volume of enzyme reaction buffer and subjected to oscillation on a microplate oscillator for 20 min.
4 μL of enzyme was transferred to a 384-well reaction plate. 1 μL of the test compound was added into the 384-well reaction plate. The plate was sealed with sealing film, and the reaction plate with the compound was centrifuged at 1000 rpm for 1 min and incubated for 60 min. 5 μL of a mixture of substrate and antibody was transferred to the 384-well reaction plate. The plate was sealed with sealing film, then centrifuged at 1000 rpm for 1 min and incubated for 120 min at room temperature.
Ratiopositive control: average value of the ratios of 10 positive control wells; Rationegative control: average value of the ratios of 10 negative control wells.

KRAS G12C, sequence (P01116 1-188 isoform P01116-2 G12C): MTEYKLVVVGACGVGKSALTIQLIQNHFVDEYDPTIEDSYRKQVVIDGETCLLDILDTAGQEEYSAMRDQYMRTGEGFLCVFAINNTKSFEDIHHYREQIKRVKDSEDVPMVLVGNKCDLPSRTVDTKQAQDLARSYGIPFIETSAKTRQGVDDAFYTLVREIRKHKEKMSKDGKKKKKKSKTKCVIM
T1 sequence (P08183 whole entry): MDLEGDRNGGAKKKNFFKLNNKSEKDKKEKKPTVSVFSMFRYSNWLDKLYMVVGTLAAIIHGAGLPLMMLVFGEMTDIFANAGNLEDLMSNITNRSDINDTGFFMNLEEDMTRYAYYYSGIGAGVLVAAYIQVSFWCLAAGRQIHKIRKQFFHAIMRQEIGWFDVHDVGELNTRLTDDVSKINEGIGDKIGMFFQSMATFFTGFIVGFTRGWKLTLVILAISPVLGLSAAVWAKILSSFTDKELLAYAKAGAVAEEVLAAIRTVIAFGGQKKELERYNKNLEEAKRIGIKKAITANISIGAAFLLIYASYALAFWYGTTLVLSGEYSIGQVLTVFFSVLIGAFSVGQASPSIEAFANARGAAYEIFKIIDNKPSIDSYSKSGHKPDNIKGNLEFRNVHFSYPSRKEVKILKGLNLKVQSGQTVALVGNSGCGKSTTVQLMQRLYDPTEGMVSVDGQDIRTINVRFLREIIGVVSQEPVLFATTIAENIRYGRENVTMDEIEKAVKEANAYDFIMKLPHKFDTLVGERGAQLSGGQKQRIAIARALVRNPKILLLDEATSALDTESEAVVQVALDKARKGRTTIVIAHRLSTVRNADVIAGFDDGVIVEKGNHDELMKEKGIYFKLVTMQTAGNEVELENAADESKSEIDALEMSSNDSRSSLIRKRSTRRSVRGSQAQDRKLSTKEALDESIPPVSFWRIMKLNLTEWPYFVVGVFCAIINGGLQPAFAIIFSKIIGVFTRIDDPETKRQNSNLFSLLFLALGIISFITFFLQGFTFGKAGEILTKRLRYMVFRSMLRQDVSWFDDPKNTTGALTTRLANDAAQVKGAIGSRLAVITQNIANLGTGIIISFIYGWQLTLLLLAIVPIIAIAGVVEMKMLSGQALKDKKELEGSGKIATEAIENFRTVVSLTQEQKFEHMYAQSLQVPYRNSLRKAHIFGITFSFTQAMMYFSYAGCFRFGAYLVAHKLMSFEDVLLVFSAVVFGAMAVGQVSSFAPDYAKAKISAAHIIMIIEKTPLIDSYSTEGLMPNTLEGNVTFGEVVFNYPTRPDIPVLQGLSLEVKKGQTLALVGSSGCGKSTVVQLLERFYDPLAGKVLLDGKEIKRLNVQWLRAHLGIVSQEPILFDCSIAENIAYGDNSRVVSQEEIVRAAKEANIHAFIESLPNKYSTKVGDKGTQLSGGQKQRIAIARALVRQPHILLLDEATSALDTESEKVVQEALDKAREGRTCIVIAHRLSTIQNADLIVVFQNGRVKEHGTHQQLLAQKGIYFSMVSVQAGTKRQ

C=CC(=O)N1CCN(c2nc(=O)n(-c3c(C)ccnc3C(C)C)c3nc(-c4c(O)cccc4F)c(F)cc23)[C@@H](C)C1 [AMG510]
IC50 (NCI-H358 cells): 41 nM | chromosome aberration effect test result (in words) [1]: positive result | substrate for P-gp (in words) [2]: is a substrate

CN(C)C/C=C/C(=O)Nc1cc2c(Nc3ccc(F)c(Cl)c3)ncnc2cc1O[C@H]1CCOC1 [Afatinib]
Tumor inhibition rate (%) [3]: + (“+” represents a tumor inhibition rate of <130%)

C=CC(=O)N1CCN(c2nc(=O)n(-c3c(C)ccnc3C(C)C)c3nc(-c4c(F)cccc4C=C)c(Cl)cc23)[C@@H](C)C1 [Compound 3-6]
water and food intake, activity and body weight during the administration period (in words) [4]: no significant abnormality was showed | MTD ([5]; both sexes, SD rats, single oral gavage, 500, 1000, 2000 mg/kg, read-out: maximum tolerated dose (MTD)): ≥ 2000 mg/kg | death or morbidity after single dose (in words) [5]: No animals in each group were dead or close to death | IC50 (NCI-H358 cells): 11 nM | MTD at 5 days [6]: > 800 mg/kg | water and food intake, activity and body weight during the administration period (in words) [6]: no significant abnormality was showed | inhibition effect on the growth of subcutaneously transplanted tumors derived from pancreatic cancer MIA paca-2 cells in nude mice (in words) [7]: significant inhibition effect | Tumor inhibition rate (%) [7]: +++ (“+++” represents a tumor inhibition rate of >80%) | anti-cell proliferation activity against KRAS G12C mutant type cells NCI-H358 (in words) (NCI-H358): significant anti-cell proliferation activity | IC50 (NCI-H358): < 50 nM | anti-cell proliferation activity against KRAS G12C mutant type cells MIA PaCa-2 (in words) (MIA PaCa-2 cells): significant anti-cell proliferation activity | IC50 (MIA PaCa-2 cells): < 50 nM

[2H]C([2H])=Cc1cccc(F)c1-c1nc2c(cc1Cl)c(N1CCN(C(=O)C=C)C[C@@H]1C)nc(=O)n2-c1c(C)ccnc1C(C)C [Compound 3-20]
IC50 (NCI-H358 cells): 10 nM | cell proliferation inhibitory activity of NCI-H358 compared with AMG510 (in words) (NCI-H358 cells; test 8): better than AMG510 | water and food intake, activity and body weight during the administration period (in words) [6]: no significant abnormality was showed | inhibition effect on the growth of subcutaneously transplanted tumors derived from pancreatic cancer MIA paca-2 cells in nude mice (in words) [7]: significant inhibition effect | Tumor inhibition rate (%) [7]: +++ (“+++” represents a tumor inhibition rate of >80%) | inhibitory activity on KRAS G12C enzyme compared with AMG510 (in words) (KRAS G12C): remarkable better | IC50 (KRAS G12C; 60 min incubation with enzyme, read-out: IC50 value of the compound on KRAS G12C enzyme activity): 19 nM | anti-cell proliferation activity against KRAS G12C mutant type cells NCI-H358 (in words) (NCI-H358): significant anti-cell proliferation activity | IC50 (NCI-H358): < 50 nM | anti-cell proliferation activity against KRAS G12C mutant type cells MIA PaCa-2 (in words) (MIA PaCa-2 cells): significant anti-cell proliferation activity | IC50 (MIA PaCa-2 cells): < 50 nM

[2H]C([2H])=Cc1ccccc1-c1nc2c(cc1Cl)c(N1CCN(C(=O)C=C)C[C@@H]1C)nc(=O)n2-c1c(C([2H])([2H])[2H])ccnc1C(C)C [Compound 4-8]
MTD at 5 days [6]: > 800 mg/kg | water and food intake, activity and body weight during the administration period (in words) [6]: no significant abnormality was showed | IC50 (NCI-H358): < 50 nM | IC50 (MIA PaCa-2 cells): < 50 nM

[2H]C([2H])=Cc1ccccc1-c1nc2c(cc1Cl)c(N1CCN(C(=O)C=C)C[C@@H]1C)nc(=O)n2-c1c(C(C)C)ccnc1C(C)C [Compound 5-8]
IC50 (NCI-H358): < 50 nM | IC50 (MIA PaCa-2 cells): < 50 nM

C=CC(=O)N1CCN(c2nc(=O)n(-c3c(C(C)C)ccnc3C(C)C)c3nc(-c4ccccc4C=C)c(Cl)cc23)[C@@H](C)C1 [Compound 5-24]
IC50 (NCI-H358): < 50 nM | IC50 (MIA PaCa-2 cells): < 50 nM

CC(=O)Nc1cccc(-n2c(=O)n(C3CC3)c(=O)c3c(Nc4ccc(I)cc4F)n(C)c(=O)c(C)c32)c1 [Trametinib]
Tumor inhibition rate (%) [3]: + (“+” represents a tumor inhibition rate of <130%)
